According to patent US20250145598A1, “ACID CERAMIDASE INHIBITORS AND USES THEREOF” (The Regents of the University of California, priority 2021, published 2025):

Molecular target: T1, Acid ceramidase (Homo sapiens, UniProt Q13510)
T1 sequence (Q13510 22-395): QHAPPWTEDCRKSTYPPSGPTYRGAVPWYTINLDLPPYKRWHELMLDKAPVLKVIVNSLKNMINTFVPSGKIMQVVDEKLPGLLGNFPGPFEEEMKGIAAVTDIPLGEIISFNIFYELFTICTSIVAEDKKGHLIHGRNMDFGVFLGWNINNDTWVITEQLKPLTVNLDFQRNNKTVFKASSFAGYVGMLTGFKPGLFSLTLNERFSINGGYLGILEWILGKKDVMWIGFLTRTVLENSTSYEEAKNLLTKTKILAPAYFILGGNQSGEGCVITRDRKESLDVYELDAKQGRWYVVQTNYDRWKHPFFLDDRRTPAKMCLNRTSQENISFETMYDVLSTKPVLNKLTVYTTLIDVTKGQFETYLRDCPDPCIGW
Assay: Acid ceramidase assay (AC in vitro IC50)
Type: biochemical
Settings: Acid ceramidase assay data of example compounds

| IC50 [nM] | Structure (SMILES) |
| --- | --- |
| < 300 | CCS(=O)(=O)c1ccc(COc2ccc(-c3cn(C(=O)NCC4CCN(c5ccccc5)C4)cn3)cc2)nn1 (stereo not shown) [AC2020601-0482, 4-(4-((6-(ethylsulfonyl)pyridazin-3-yl)methoxy)phenyl)-N-((1-phenylpyrrolidin-3-yl)methyl)-1H-imidazole-1-carboxamide] |
| < 300 | Cn1ncc(COc2ccc(-c3cn(C(=O)NCC4CCN(c5ccccc5)C4)cn3)cc2)n1 (stereo not shown) [AC2020601-0488, 4-(4-((2-methyl-2H-1,2,3-triazol-4-yl)methoxy)phenyl)-N-((1-phenylpyrrolidin-3-yl)methyl)-1H-imidazole-1-carboxamide] |
| < 300 | Cc1nnc(COc2ccc(-c3cn(C(=O)NCC4CCN(c5ccccc5)C4)cn3)cc2)o1 (stereo not shown) [AC2020601-0491, 4-(4-((5-methyl-1,3,4-oxadiazol-2-yl)methoxy)phenyl)-N-((1-phenylpyrrolidin-3-yl)methyl)-1H-imidazole-1-carboxamide] |
| < 300 | CS(=O)(=O)c1ccc(COc2ccc(-c3cn(C(=O)NCC4CCN(c5ccccc5)C4)cn3)cc2)cn1 (stereo not shown) [AC2020601-0444, 4-(4-((6-(methylsulfonyl)pyridin-3-yl)methoxy)phenyl)-N-((1-phenylpyrrolidin-3-yl)methyl)-1H-imidazole-1-carboxamide] |
| < 300 | CC(C)n1ccc(COc2ccc(-c3cn(C(=O)NCC4CCN(c5ccccc5)C4)cn3)cc2)n1 (stereo not shown) [AC2020601-0448, 4-(4-((1-isopropyl-1H-pyrazol-3-yl)methoxy)phenyl)-N-((1-phenylpyrrolidin-3-yl)methyl)-1H-imidazole-1-carboxamide] |
| < 300 | CN1CCN(S(=O)(=O)c2ccc(COc3ccc(-c4cn(C(=O)NCCCOc5ccccc5)cn4)cc3)cc2)CC1 [AC2020601-0342, 4-(4-((4-((4-methylpiperazin-1-yl)sulfonyl)benzyl)oxy)phenyl)-N-(3-phenoxypropyl)-1H-imidazole-1-carboxamide] |
| < 300 | CS(=O)(=O)c1ccc(COc2ccc(-c3cn(C(=O)NCC4CCN(c5ccc(F)cn5)C4)cn3)cc2)cc1 (stereo not shown) [AC2020601-0497, N-((1-(5-fluoropyridin-2-yl)pyrrolidin-3-yl)methyl)-4-(4-((4-(methylsulfonyl)benzyl)oxy)phenyl)-1H-imidazole-1-carboxamide] |
| < 300 | N#CCS(=O)(=O)c1ccc(COc2ccc(-c3cn(C(=O)NCC4CCN(c5ccccc5)C4)cn3)cc2)cc1 (stereo not shown) [AC2020601-0507, 4-(4-(4-(cyanomethylsulfonyl)benzyloxy)phenyl)-N-((1-phenylpyrrolidin-3-yl)methyl)-1H-imidazole-1-carboxamide] |
| < 300 | CS(=O)(=O)c1ccc(COc2ccc(-c3cn(C(=O)NCC4CC(=O)N(c5ccccc5)C4)cn3)cc2)cc1 (stereo not shown) [AC2020601-0443, 4-(4-((4-(methylsulfonyl)benzyl)oxy)phenyl)-N-((5-oxo-1-phenylpyrrolidin-3-yl)methyl)-1H-imidazole-1-carboxamide] |
| < 300 | NS(=O)(=O)c1ccc(COc2ccc(-c3cn(C(=O)NCCCOc4ccccc4)cn3)cc2)cc1 [AC2020601-0324] |
